Earlier results on 1 substance are cited in patent publication US7015199B1, “Treatment of psoriasis through down-regulation of the EGF-receptor with topically-applied EGF” (priority 2000, dated 2006).

In this data set the test system is EGF-dependent cancer cell lines. The conditions noted are these: high levels of EGF, in-vitro.

“epidermal growth factor (NSDSECPLSHDGYCLHDGVCMYIEALDKYACNCVVGYIGERCQYRDLKWWELR; Epidermal growth factor; UniProt P01133 971-1023, looked up) [EGF, epidermal growth factor, ligand of the EGF receptor]”: the “growth of EGF-dependent cancer cell lines” value was “inhibited the growth”.
